Converted amounts (≈) assume the structure as drawn. Where a name gives a salt, the structure may show the parent alone. Read-outs that look alike come from different tables or passages of the source.
Tests used:
A549 [1] = test: MTS cytotoxicity assay, 2D cell culture; conditions: Homo sapiens, A549, 72 h, read-out: Cytotoxicity Assay IC50 ± SD, A549 2D
Description: (§1) MTS assay gives us information about the number of living cells, in this case, metabolically active cells, whereas the BrdU proliferation assay gives a measure of the cell population in active division phase. Both assays were performed in 2D and 3D assay formats. For the 2D cell assay format, we used classic two-dimensional in vitro assays and as a 3D assay we used a hanging drop proliferation cell assay as previously described. We explored the activity of compounds on three human lung cancer cell lines, A549, HCC827 and NCI-H358. The compound activity was also tested on human lung fibroblast cell line MRC-5. A two-dimensional in vitro viability assay was performed on the MRC-5 cell line to see if tested compounds are cytotoxic on normal cell lines in low concentrations. […] 7.1.
(§2) Test compounds were synthesized by a research group at the Department of Organic Chemistry, Faculty of Chemical Engineering and Technology, University of Zagreb. […] Compounds were diluted 1:3. We transferred 500 nL (for 2D cell culture) or 400 nL (for 3D cell culture) of the compound from a mother plate to test plate by using Mosquito (TTP labtech). DMSO percentage in test concentrations was 0.5–1.0%. Starting concentration of the test compounds and standard compound doxorubicin was 50 µM (2D cell culture) or 100 µM (3D cell culture).
(§3) Cells were grown in 96-well cell star polystyrene plates. We seeded 10,000 cells/well in wells 4 h prior to the treatment with different compounds concentrations and incubated for 72 h. A cell viability assay was performed according to the manufacturer’s instructions, using CellTiter 96 aqueous solution, MTS kit (Promega, Madison, WI, USA). After 0.5–2 h of cell incubation with MTS in 2D cell culture, the plates were read using PE EnVision absorbance at 490 nm.
(§4) Calculation of IC50 data, curves and QC analysis was performed by using Excel tools and GraphPadPrism software (La Jolla, CA, USA), v. […] QC criteria parameters (Z’, S:B, R2, HillSlope) were checked for every IC50 curve.

HCC827 [2] = test: MTS cytotoxicity assay, 2D cell culture; conditions: Homo sapiens, HCC827, 72 h, read-out: Cytotoxicity Assay IC50 ± SD; HCC827 2D
Description: as §1, §2, §3, §4

NCI-H358 [3] = test: MTS cytotoxicity assay, 2D cell culture; conditions: Homo sapiens, NCI-H358, 72 h, read-out: Cytotoxicity Assay IC50 ± SD; NCI-H358 2D
Description: as §1, §2, §3, §4

A549 [4] = test: Cytotoxicity (viability) assay, 3D hanging drop cell culture; conditions: Homo sapiens, A549, 72 h, read-out: Cytotoxicity Assay IC50 ± SD; A549 3D
Description: as §1, §2
(§5) Cells were grown in 96-well Perfecta 3D hanging drop plates 5000 cell/well for 4 days until spheres were formed (and checked under the microscope). After sphere formation cells were treated with compounds followed by 72 h incubation. Cell viability assay was performed according to the manufacturer’s instructions, using CellTiter GLO 3D for 3D cell culture (Promega); cell incubation was 5 min on the shaker followed by 25 min incubation in the dark. Plates were read using PE EnVision luminescence.
as §4

HCC827 [5] = test: as above; conditions: Homo sapiens, HCC827, 72 h, read-out: Cytotoxicity Assay IC50 ± SD; HCC827 3D
Description: as §1, §2, §5, §4

NCI-H358 [6] = test: as above; conditions: Homo sapiens, NCI-H358, 72 h, read-out: Cytotoxicity Assay IC50 ± SD; NCI-H358 3D
Description: as §1, §2, §5, §4

[7] = MTS cytotoxicity assay, 2D cell culture, normal lung fibroblasts; conditions: human
Description: as §1, §2, §3, §4

A549 [8] = test: BrdU proliferation assay, 2D cell culture; type: cell-based, human; conditions: Homo sapiens
Description: as §1, §2, §3
(§6) Proliferation assay was performed using Cell Proliferation ELISA, BrdU (Sigma, St. Louis, MO, USA). Briefly, 48 h hours after compound addition, 10 µM of BrdU was added to each well and incubated for the following 24 h. After incubation, a single cell suspension was made for 3D cell culture in the new 96-well plate. Plates were centrifuged and supernatants were removed from each plate (for 2D and 3D cell culture) followed by 60 min incubation at 60 °C. The rest of the proliferation assay was performed according to the manufacturer’s instructions.
as §4

HCC827 [9] = test: BrdU proliferation assay, 2D cell culture; type: cell-based, human; conditions: Homo sapiens
Description: as §1, §2, §3, §6, §4

NCI-H358 [10] = test: BrdU proliferation assay, 2D cell culture; type: cell-based, human; conditions: Homo sapiens, NCI-H358, 2D, n = 2, read-out: Proliferation Assay IC50 ± SD
Description: as §1, §2, §3, §6, §4

A549 [11] = test: BrdU proliferation assay, 3D hanging drop cell culture; type: cell-based, human; conditions: Homo sapiens
Description: as §1, §2, §5, §6, §4

HCC827 [12] = test: as above; type: cell-based, human; conditions: Homo sapiens
Description: as §1, §2, §5, §6, §4

NCI-H358 [13] = test: as above; type: cell-based, human; conditions: Homo sapiens, NCI-H358, 3D, n = 2, read-out: Proliferation Assay IC50 ± SD
Description: as §1, §2, §5, §6, §4

E. coli ATCC 25922 = test: Broth microdilution testing (CLSI); type: cell-based, Escherichia coli
Description: (§7) Broth microdilution testing was performed according to CLSI (Clinical Laboratory Standards Institute) guidelines. MIC (minimal inhibitory concentration) value was defined as the last tested concentration of compound at which there is no visible growth of bacteria. […] Clinical and Laboratory Standards Institute (CLSI) guidelines.

S. aureus ATCC 29213 = test: Broth microdilution testing (CLSI); type: cell-based, Staphylococcus aureus
Description: as §7

S. cerevisiae ATCC 7752 = test: Broth microdilution testing (CLSI); type: cell-based, Saccharomyces cerevisiae
Description: as §7

[14] = A549, 2D, BrdU, n = 2, read-out: Proliferation Assay IC50 ± SD
[15] = HCC827, read-out: Proliferation Assay IC50 ± SD, HCC827 2D
[16] = A549, 3D, BrdU, n = 2, read-out: Proliferation Assay IC50 ± SD
[17] = HCC827, read-out: Proliferation Assay IC50 ± SD, HCC827 3D
[18] = Escherichia coli, ATCC25922, broth microdilution, 16–24h at 37 °C, read-out: MIC E. coli ATCC 25922
[19] = Staphylococcus aureus, ATCC29213, broth microdilution, 16–24h at 37 °C, read-out: MIC S. aureus ATCC 29213
[20] = Saccharomyces cerevisiae, ATCC7752, broth microdilution, 16–24h at 37 °C, read-out: MIC S. cerevisiae ATCC 7752
[21] = A549, read-out: Proliferation Assay IC50 ± SD, A549 2D
[22] = A549, read-out: Proliferation Assay IC50 ± SD, A549 3D

Molecule: CC(C)NC(=N)c1ccc2[nH]c(-c3ccc(-c4ccc([N+](=O)[O-])cc4)o3)nc2c1 (as salt: hydrochloride) [Compound 11, 2-[5-(4-Nitrophenyl)furan-2-yl]-5(6)-N-isopropilamidinobenzimidazole hydrochloride]
- melting point: > 270 °C

Molecule: COc1cc2c(Nc3ccc(Br)cc3F)ncnc2cc1OCC1CCN(C)CC1 [Vandetanib, reference compound]
- IC50 (A549 [1]; 72 h, MTS, n = 2): > 25000 nM
- IC50 (HCC827 [2]): 580 ± 30 nM
- IC50 (NCI-H358 [3]): 3120 nM
- IC50 (A549 [4]): > 50000 nM
- IC50 (HCC827 [5]): 160 ± 40 nM
- IC50 (NCI-H358 [6]): 380 ± 200 nM
- IC50 at 72 h ([7]; MRC-5 normal lung fibroblasts, 2D culture): 11100 nM
- IC50 (A549 [8]; [14]): > 25000 nM
- IC50 (HCC827 [9]; [15]): 200 ± 110 nM
- IC50 (NCI-H358 [10]): > 25000 nM
- IC50 (A549 [11]; [16]): > 50000 nM
- IC50 (HCC827 [12]; [17]): 80 ± 20 nM
- IC50 (NCI-H358 [13]): 380 ± 170 nM

Molecule: C[C@@H](c1ncncc1F)[C@](O)(Cn1cncn1)c1ccc(F)cc1F [Voriconazole, reference compound]
- MIC (E. coli ATCC 25922; [18]): > 64 µM
- MIC (S. aureus ATCC 29213; [19]): > 64 µM
- MIC (S. cerevisiae ATCC 7752; [20]): < 0.125 µM

Molecule: CC(C)(O/N=C(\C(=O)N[C@@H]1C(=O)N2C(C(=O)[O-])=C(C[n+]3ccccc3)CS[C@H]12)c1csc(N)n1)C(=O)O [Ceftazidime, reference compound]
- MIC (E. coli ATCC 25922; [18]): < 0.125 µM
- MIC (S. aureus ATCC 29213; [19]): 16 µM (≈ 8.75 µg/mL)
- MIC (S. cerevisiae ATCC 7752; [20]): > 64 µM

Molecule: O=[N+]([O-])c1ccc(-c2ccc(-c3nc4cc(C5=NCCN5)ccc4[nH]3)o2)cc1 (as salt: hydrochloride) [Compound 12, 5(6)-(4,5-Dihydro-1H-imidazol-2-yl)-2-[5-(4-nitrophenyl)furan-2-yl]benzimidazole hydrochloride]
- melting point: > 270 °C

Molecule: CC(C)NC(=N)c1ccc2nc(-c3ccc(-c4ccc([N+](=O)[O-])cc4)o3)sc2c1 (as salt: hydrochloride) [Compound 5, 2-[5-(4-Nitrophenyl)furan-2-yl]-6-N-isopropilamidinobenzothiazole hydrochloride]
- melting point: 201 to 206 °C

Molecule: CN[C@@H]1C[C@H]2O[C@@](C)([C@@H]1OC)n1c3ccccc3c3c4c(c5c6ccccc6n2c5c31)C(=O)NC4 [Staurosporine, reference compound]
- IC50 (HCC827 [2]): 33 ± 2 nM
- IC50 at 72 h [7]: 31 ± 11 nM
- IC50 (A549 [8]; [21]): 35 ± 17 nM
- IC50 (HCC827 [9]; [15]): 4 ± 2 nM
- IC50 (A549 [11]; [22]): 110 ± 1 nM

Molecule: CC1(C)S[C@@H]2[C@H](NC(=O)[C@H](N)c3ccccc3)C(=O)N2[C@H]1C(=O)O [Ampicillin, reference compound]
- MIC (E. coli ATCC 25922; [18]): 4 µM (≈ 1.4 µg/mL)
- MIC (S. aureus ATCC 29213; [19]): 2 µM (≈ 0.699 µg/mL)
- MIC (S. cerevisiae ATCC 7752; [20]): > 64 µM

Molecule: Gentamycin [reference compound]
- MIC (E. coli ATCC 25922; broth microdilution, 16–24h at 37 °C, read-out: MIC E. coli ATCC 25922): 0.5 µM
- MIC (S. aureus ATCC 29213; broth microdilution, 16–24h at 37 °C, read-out: MIC S. aureus ATCC 29213): 0.25 µM
- MIC (S. cerevisiae ATCC 7752; broth microdilution, 16–24h at 37 °C, read-out: MIC S. cerevisiae ATCC 7752): >64 µM

Molecule: COc1cccc2c1C(=O)c1c(O)c3c(c(O)c1C2=O)C[C@@](O)(C(=O)CO)C[C@@H]3O[C@H]1C[C@H](N)[C@H](O)[C@H](C)O1 [Doxorubicin, reference compound]
- IC50 (A549 [1]; 72 h, MTS, n = 2): 1310 ± 110 nM
- IC50 (HCC827 [2]): 320 ± 30 nM
- IC50 (NCI-H358 [3]): 150 ± 60 nM
- IC50 (A549 [4]): 5860 ± 1100 nM
- IC50 (HCC827 [5]): 1470 ± 120 nM
- IC50 (NCI-H358 [6]): 990 ± 150 nM
- IC50 at 72 h [7]: 600 ± 10 nM
- IC50 (A549 [8]; [14]): 130 ± 10 nM
- IC50 (HCC827 [9]; HCC827, 2D, BrdU, n = 2, read-out: Proliferation Assay IC50 ± SD): 250 ± 280 nM
- IC50 (NCI-H358 [10]): 70 ± 40 nM
- IC50 (A549 [11]; [16]): 480 ± 30 nM
- IC50 (HCC827 [12]; HCC827, 3D, BrdU, n = 2, read-out: Proliferation Assay IC50 ± SD): 1890 ± 2300 nM
- IC50 (NCI-H358 [13]): 2300 ± 1910 nM

Molecule: CC(C)NC(=N)c1ccc2[nH]c(-c3ccc(-c4ccc(Cl)cc4)o3)nc2c1 (as salt: hydrochloride) [Compound 14, 2-[5-(4-Chlorophenyl)furan-2-yl]-5(6)-isopropilamidinobenzimidazole hydrochloride]
- melting point: 242 to 246 °C

Molecule: N#C/C(=C\c1ccc(-c2ccc(Cl)cc2)o1)c1nc2ccccc2s1 [Compound 22, (E)-2-(Benzothiazol-2-yl)-3-[5-(4-chlorophenyl)furan-2-yl]acrylonitrile]
- IC50 (A549 [1]): > 50000 nM
- IC50 (HCC827 [2]): > 50000 nM
- IC50 (NCI-H358 [3]): > 50000 nM
- IC50 (A549 [4]): > 100000 nM
- IC50 (HCC827 [5]): > 100000 nM
- IC50 (NCI-H358 [6]): > 100000 nM
- IC50 at 72 h [7]: > 50000 nM
- IC50 (A549 [8]; [21]): > 50000 nM
- IC50 (HCC827 [9]; [15]): > 50000 nM
- IC50 (NCI-H358 [10]): > 50000 nM
- IC50 (A549 [11]; [22]): > 100000 nM
- IC50 (HCC827 [12]; [17]): > 100000 nM
- IC50 (NCI-H358 [13]): > 100000 nM
- MIC (E. coli ATCC 25922; Escherichia coli, ATCC25922, read-out: MIC E. coli ATCC 25922): > 100 µM
- MIC (S. aureus ATCC 29213; Staphylococcus aureus, ATCC29213, read-out: MIC S. aureus ATCC 29213): > 100 µM
- MIC (S. cerevisiae ATCC 7752; Saccharomyces cerevisiae, ATCC7752, read-out: MIC S. cerevisiae ATCC 7752): > 100 µM

Molecule: CC(C)NC(=N)c1ccc2nc(-c3ccc(-c4ccc(Cl)cc4)o3)sc2c1 (as salt: hydrochloride) [Compound 8, 2-[5-(4-Chlorophenyl)furan-2-yl]-6-N-isopropilamidinobenzothiazole hydrochloride]
- melting point: 204 to 208 °C

— PMC8401404 (Molecules, 2021)
